Results as given in PMC7582727, “Functional Impact of BeKm-1, a High-Affinity hERG Blocker, on Cardiomyocytes Derived from Human-Induced Pluripotent Stem Cells” (International Journal of Molecular Sciences, 2020).
Entries after “also recorded” stand apart in the source; their conditions may differ. Positions of bridges follow the written chain, without caps; N, C: chain ends. Residues, ends and D or L forms follow the SMILES beside them.

Experiments:
hiPS-CMs monolayer = test: Electric field potential of hiPS-CM monolayers (CardioExcyte96); assay type: cell-based, human
From the text: The excitability abnormalities recorded on single hiPS-CM APs should translate into larger abnormalities when these cells are interacting with each other in monolayers. To assess this issue, we investigated the electrical excitability of hiPS-CM monolayers using the CardioExcyte96 system (Nanion). This system monitors both the electric field potential (EFP), which reflects the concerted electrical activity of the cell monolayer, and the impedance changes due to cell contractions, which will be described below. […] As saturating concentrations of BeKm-1 (100 nM) induced the arrest of spontaneous APs in individual cells, we were interested to see what may happen on a monolayer of hiPS-CMs.
hiPS-CMs: All experiments were performed on the human-induced pluripotent stem cell (hiPSC) clone C2a that has been previously characterized, including cardiac differentiation and electrophysiology data. Cells were expanded on stem cell-qualified matrigel-coated plates (0.05 mg/mL; BD Bioscience, Le Pont de Claix, France) and cultured in StemMACS iPS-BREW XF medium (Miltenyi Biotec, Paris, France). Cells were passaged every […] using Gentle Cell Dissociation Buffer (StemCell Technologies, Grenoble, France). Prior to differentiation, cells were cultured as a monolayer in StemMACS iPS-brew supplemented with 1 × Y-27632 Rho-associated, coiled-coil containing protein kinase (ROCK) inhibitor (StemCell Technologies, Grenoble, France). When hiPSCs reached proper confluence, they were differentiated into cardiomyocytes using previously described « Matrix sandwich » protocol. At day 20 ± 1 of differentiation, beating cardiomyocytes were manually dissected and isolated from non-beating cells. Briefly, cardiomyocytes were washed with phosphate-buffered saline (PBS) and treated with TrypLE Express (10x) (Thermo Fisher Scientific, Illkirch-Graffenstaden, France) for 5 min at 37 °C. The enzyme was inactivated by adding RPMI1640 medium containing 20% (vol/vol) KnockOut Serum Replacement (KSR) (Thermo Fisher Scientific, Illkirch-Graffenstaden, France). […]
The beating properties and the electrical field potentials of hiPS-CMs were evaluated with a CardioExcyte96 system. […] Meanwhile, cells were monitored to ensure the full stabilization of beating parameters until BeKm-1 was tested at various concentrations ([…]). Tfall and Trise were determined as the time between 10% and 90% of contraction or relaxation, respectively. Pulse width (PWx) was determined as the time corresponding to the width of the signal at 90% of relaxation. Electric field potentials (EFPs) were recorded using CardioExcyte96 system. For both contraction and EFPs, 10 sequences of 30 s of acquisition were analyzed before and after BeKm-1 addition. […]

hiPS-CMs = test: Intracellular Ca^2+ transients in hiPS-CMs (Fluo-4, confocal); assay type: cell-based, human; conditions: 5 nM
Procedure: As Ca^2+ influx abnormalities are likely to be at the root of electrophysiological disorders observed in the presence of BeKm-1, we sought to investigate the effects of this compound on hiPS-CM calcium dynamics. In order to test this, intracellular Ca^2+ transients (CaT) were monitored by confocal microscopy using the Fluo4 Ca^2+-sensitive dye in presence of 5 nM BeKm-1. […] The average interval was raised from 3.3 ± 1.7 sec (n = 8, vehicle) to 4.9 ± 2.2 sec (n = 8, 5 nM BeKm-1) (Figure S4C). In addition, we observed a reduction of CaT amplitude from 1.8 ± 0.2 (n = 8, vehicle) to 0.8 ± 0.2 (n = 8, 5 nM BeKm-1) (Figure S4D). […] The altered shape of the CaT was due to a slower time to peak (1.1 ± 0.1 s with vehicle vs. 2.2 ± 0.4 s with 5 nM BeKm-1, n = 8) (Figure S4E), possibly indicating a slower release from internal stores associated to a reduced entry by VGCC (largely due to the impact of RMP depolarization).
hiPS-CMs: All experiments were performed on the human-induced pluripotent stem cell (hiPSC) clone C2a that has been previously characterized, including cardiac differentiation and electrophysiology data. Cells were expanded on stem cell-qualified matrigel-coated plates (0.05 mg/mL; BD Bioscience, Le Pont de Claix, France) and cultured in StemMACS iPS-BREW XF medium (Miltenyi Biotec, Paris, France). Cells were passaged every […] using Gentle Cell Dissociation Buffer (StemCell Technologies, Grenoble, France). Prior to differentiation, cells were cultured as a monolayer in StemMACS iPS-brew supplemented with 1 × Y-27632 Rho-associated, coiled-coil containing protein kinase (ROCK) inhibitor (StemCell Technologies, Grenoble, France). When hiPSCs reached proper confluence, they were differentiated into cardiomyocytes using previously described « Matrix sandwich » protocol. At day 20 ± 1 of differentiation, beating cardiomyocytes were manually dissected and isolated from non-beating cells. Briefly, cardiomyocytes were washed with phosphate-buffered saline (PBS) and treated with TrypLE Express (10x) (Thermo Fisher Scientific, Illkirch-Graffenstaden, France) for 5 min at 37 °C. The enzyme was inactivated by adding RPMI1640 medium containing 20% (vol/vol) KnockOut Serum Replacement (KSR) (Thermo Fisher Scientific, Illkirch-Graffenstaden, France). The supernatant was removed, and cells were suspended in RPMI1640 medium containing 20% (vol/vol) KSR and ROCK inhibitor. Then, the cells were plated on specific supports suitable for functional assessments.
Calcium transients of hiPS-CMs were evaluated using the Fluo-4 reported dye and a Nikon A1R confocal microscope. Dissociated hiPS-CMs were plated and maintained on µ-slide 8-well IBIDI plates for 12 ± 1 days prior to experiments. On the day of the experiments, cells were loaded for 20 min with 3 µM Fluo-4 AM Ca^2+ indicator (Thermo Fisher Scientific, Illkirch-Graffenstaden, France) in culture medium at 37 °C. Then, to allow complete de-esterification of the Ca^2+ probe, the medium was replaced and cells were re-incubated at 37 °C for another 20 min. All recordings were performed in Tyrode’s solution, cells being placed at 37 °C in an experimental chamber. Confocal microscopy was performed using a Nikon A1R confocal inverted microscope (Nikon Corp, Tokyo, Japan) with a Nikon X60 Plan-Apo numerical aperture 1.4 oil-immersion objective (MicroPICell core facility). Fluo-4 AM was excited using the 488 nm line from an argon laser and fluorescence emission was measured at >505 nm. Images were acquired between 15.5 and 56.4 frames/s in X-Y mode, with a resolution of 1024 × 1024 pixels ([…]).

Q: Which results are given for CC[C@H](C)[C@H](NC(=O)[C@H](CC(=O)O)NC(=O)[C@@H](NC(=O)[C@@H]1CCCN1C(=O)[C@@H](N)CCCNC(=N)N)[C@@H](C)O)C(=O)N[C@@H](CCCCN)C(=O)N[C@H]1CSSC[C@@H]2NC(=O)[C@H](CCCNC(=N)N)NC(=O)CNC(=O)[C@H](CC(N)=O)NC(=O)[C@H]([C@@H](C)O)NC(=O)[C@H](CCCCN)NC(=O)CNC(=O)[C@H](Cc3ccccc3)NC(=O)[C@H](CCCNC(=N)N)NC(=O)[C@H](CO)NC(=O)[C@H](CCCCN)NC(=O)[C@@H]3CSSC[C@@H](C(=O)N[C@@H](Cc4ccccc4)C(=O)O)NC(=O)[C@H](CC(=O)O)NC(=O)[C@H](CSSC[C@H](NC(=O)[C@H](CCC(N)=O)NC(=O)[C@H](Cc4ccc(O)cc4)NC(=O)[C@H](CO)NC(=O)[C@H](CCC(=O)O)NC(=O)[C@H](CO)NC1=O)C(=O)N[C@@H](Cc1ccccc1)C(=O)N1CCC[C@H]1C(=O)N[C@@H](C(C)C)C(=O)N3)NC(=O)[C@H](Cc1ccccc1)NC(=O)CNC(=O)[C@H](CC(N)=O)NC(=O)[C@H](C(C)C)NC2=O [BeKm-1] (H-RPTDIKCSESYQCFPVCKSRFGKTNGRCVNGFCDCF-OH; disulfide 7-28, 13-33, 17-35 (inferred); N-terminus and C-terminus assumed)?
A: EFP duration (hiPS-CMs monolayer; 2 nM, 37 °C, vehicle 2.8 ± 0.1 s, n = 5, mean ± SEM): 3.4 ± 0.2 s; spontaneous depolarization in EFP (hiPS-CMs monolayer; 2 nM, Figure 4A): presence of spontaneous depolarization; EFP arrhythmic waveforms (hiPS-CMs monolayer; 100 nM): sustained waveforms of tachyarrhythmia, and TdP-like polymorphic waveforms; also recorded: increase in beats frequency and fibrillation-like pattern; EFP frequency (hiPS-CMs monolayer; 100 nM, 37 °C, vehicle 0.2 ± 0.1 Hz, n = 5, mean ± SEM, significant): 0.7 ± 0.1 Hz; average interval between CaT (hiPS-CMs; 37 °C, vehicle 3.3 ± 1.7 sec, n = 8, mean ± SEM): 4.9 ± 2.2 s; CaT amplitude (hiPS-CMs; F/F0 (Figure S4D), vehicle 1.8 ± 0.2, n = 8, mean ± SEM): 0.8 ± 0.2; cytoplasmic Ca^2+ handling (integration of Ca^2+ signals) (hiPS-CMs; Figure S4G): non-significant decrease; variability of CaT intervals (hiPS-CMs; Poincaré plot, Figure S4B): great variability; kinetics of the CaT decay phase (hiPS-CMs; tau of decay, Figure S4F): no alterations; CaT time to peak (hiPS-CMs; vehicle 1.1 ± 0.1 s, n = 8, mean ± SEM): 2.2 ± 0.4 s
